Tests used:
[1] = test system: human MDA-MB-231 breast cancer cells; test: PhotoImmunoNanoTherapy, subcutaneous MDA-MB-231 breast tumor growth in athymic nude mice; assay type: in vivo; details: subcutaneous MDA-MB-231 in athymic nude mice; one injection, NIR laser 24 h later
Source text: To evaluate the antitumor efficacy of PhotoImmunoNanoTherapy, two murine models of breast cancer were utilized to study effects in T-cell-competent hosts (murine 410.4 cells in BALB/cJ mice) and T-cell-deficient hosts (human MDA-MB-231 cells in athymic nude mice; murine 410.4 cells in NOD.CB17-Prkdcscid/J mice), in addition to a subcutaneously engrafted model of pancreatic cancer (murine Panc-02 cells in C57BL/6J mice), an orthotopic pancreatic cancer model (human BxPC-3 cells in athymic nude mice), and an experimental model of lung-metastatic osteosarcoma (human SAOS-2-LM7 cells in athymic nude mice). Treatments were initiated one week following tumor establishment and consisted of injections of ICG-CPSNPs or controls followed 24 h later by NIR laser treatment of the tumor location to allow adequate tumor accumulation of PEGylated ICGCPSNPs. […] In the most elaborate study, MDA-MB-231 tumor growth was abrogated in athymic nude mice receiving PEGylated ICG-CPSNPs but not PBS or PEGylated ghost CPSNPs (FIG. 1A). Furthermore, MDA-MB-231 tumor growth was not blocked by non-PEGylated (citrate-terminated) ICG-CPSNPs or free ICG.
Orthotopic pancreatic cancer and subcutaneous breast cancer tumors were established in athymic nude, NOD.CB17-Prkdcscid/J, BALB/cJ, or C57BL/6J mice as previously described (8, 9), with minor modifications. […] Tumor size was measured by caliper measurement. […]

[2] = test system: murine Panc-02 pancreatic cancer cells; test: Injection of BSA-conjugated sphingolipids into mice with subcutaneous Panc-02 tumors; assay type: in vivo; details: subcutaneous Panc-02 in C57BL/6J mice; injection every other day, 0.1 mL of 100 μM, BSA carrier
Source text: (A) Splenic IMCs (Gr-1+CD11b+, also defined as MDSC: myeloid-derived suppressor cells) were isolated from subcutaneous human MDA-MB-231 breast tumor-bearing athymic nude mice, treated with or without dhS1P (to induce the expansion of CD19+CD45R B220+ cells: B-cells), and adoptively transferred into subcutaneous human MDA-MB-231 breast tumor-bearing athymic nude mice before monitoring tumor growth. ANOVA, **p<0.05 compared to PBS control, n≧6. (B) Splenic IMCs were isolated from orthotopic human BxPC-3 pancreatic tumor-bearing athymic nude mice, treated with or without dhS1P, and adoptively transferred into orthotopic human BxPC-3 pancreatic tumor-bearing athymic nude mice before monitoring survival. Logrank test, *p<0.05, n=5. (C) Tumor growth following BSA (lipid carrier control), sphingosine-1-phosphate (S1P), or dhS1P injection every other day, was monitored in C57BL/6J mice engrafted with subcutaneous murine Panc-02 pancreatic cancer cells. ANOVA, **p<0.05 compared to BSA control, n≧6.
Orthotopic pancreatic cancer and subcutaneous breast cancer tumors were established in athymic nude, NOD.CB17-Prkdcscid/J, BALB/cJ, or C57BL/6J mice as previously described (8, 9), with minor modifications. All cell lines used in animal and cellular studies, prior to any modification, were originally obtained from the American Type Culture Collection (Manassas, Va.). For orthotopic BxPC-3-GFP human pancreatic cancer xenografts, 4-6 week old female athymic mice were fully anesthetized with a mixture of ketamine-HCl (129 mg/kg) and xylazine (4 mg/kg) injected intramuscularly. A small incision was made in the left flank, the peritoneum was dissected and the pancreas exposed. Using a 27-gauge needle, 2.5×10^6 cells, prepared in 0.1 mL of Hank's balanced salt solution, were injected into the pancreas. For experimental lung-metastatic osteosarcoma xenografts, 4-6 week old female athymic nude mice were tail vein-injected with 2.5×10^6 human SAOS-2-LM7 cells. […] Tumor size was measured by caliper measurement. […]

[3] = test system: isolated IMCs (GEMM colonies, multipotent myeloid progenitor cells); test: CFU-GEMM colony forming assay of isolated IMCs; assay type: cell-based, athymic nude mice; details: 5 μM, GEMM-supportive semi-solid media, 3 weeks of culture
Description: (A) Splenic IMCs (Gr-1+CD11b+, also defined as MDSCs: myeloid-derived suppressor cells) were isolated from MDA-MB-231 tumor-bearing athymic nude mice and exposed to BSA, S1P (5 μM), or dhS1P (5 μM). Following 24-hour culture incubation, cells were labeled with specific antibodies and analyzed by multicolor flow cytometry (red: IMCs; blue: possible B-cells). (B) Splenic IMCs were isolated from MDA-MB-231 tumor-bearing athymic nude mice and cultured (5×10^4 cells/mL) in GEMM-supportive semi-solid media with BSA, S1P (5 μM), or dhS1P (5 μM). GEMM colonies (multipotent myeloid progenitor cells) were visualized and counted after 3 weeks of culture. ANOVA, *p<0.01 compared to no treatment or BSA-treatment, ***p<0.001 compared to S1P-treatment, n≧3. (C) Splenic hematopoietic progenitors (Lineage-Sca-1+CD117+) were isolated from MDA-MB-231 tumor-bearing athymic nude mice and exposed to BSA, S1P (5 μM), or dhS1P (5 μM). Following 24-hour culture incubation, cells were labeled with specific antibodies and analyzed by multicolor flow cytometry. […]
Isolated IMCs from the spleens of tumor-bearing athymic nude mice were cultured (5×10^4 cells/mL) in GEMM-supportive complete (mouse) methylcellulose media (R&D Systems, Minneapolis, Minn.), according to the manufacturer's instructions, with BSA, S1P (5 μM), or dhS1P (5 μM). GEMM colonies were visualized and counted after 3 weeks of culture.

SMILES	Tumor growth [1]	Tumor growth [2]	CFU-GEMM colony formation [3]
CC1(C)C(/C=C/C=C/C=C/C=C2\N(CCCCS(=O)(=O)O)c3ccc4ccccc4c3C2(C)C)=[N+](CCCCS(=O)(=O)[O-])c2ccc3ccccc3c21 [free ICG, indocyanine green]	not blocked	–	–
CCCCCCCCCCCCC/C=C/[C@@H](O)[C@@H](N)COP(=O)(O)O [S1P, sphingosine-1-phosphate, reference compound]	–	augmented tumor growth	dramatically augmented
